The target of the experiment is T1, soluble guanylate cyclase (sGC), α1 and β1 subunits of guanylate cyclase expressed in Sf9 cells (Homo sapiens, UniProt Q02108+Q02153).
T1 construct: made in house; host or cells: Sf9 insect cells (baculovirus co-infection)
T1 sequence (Q02108 1-690): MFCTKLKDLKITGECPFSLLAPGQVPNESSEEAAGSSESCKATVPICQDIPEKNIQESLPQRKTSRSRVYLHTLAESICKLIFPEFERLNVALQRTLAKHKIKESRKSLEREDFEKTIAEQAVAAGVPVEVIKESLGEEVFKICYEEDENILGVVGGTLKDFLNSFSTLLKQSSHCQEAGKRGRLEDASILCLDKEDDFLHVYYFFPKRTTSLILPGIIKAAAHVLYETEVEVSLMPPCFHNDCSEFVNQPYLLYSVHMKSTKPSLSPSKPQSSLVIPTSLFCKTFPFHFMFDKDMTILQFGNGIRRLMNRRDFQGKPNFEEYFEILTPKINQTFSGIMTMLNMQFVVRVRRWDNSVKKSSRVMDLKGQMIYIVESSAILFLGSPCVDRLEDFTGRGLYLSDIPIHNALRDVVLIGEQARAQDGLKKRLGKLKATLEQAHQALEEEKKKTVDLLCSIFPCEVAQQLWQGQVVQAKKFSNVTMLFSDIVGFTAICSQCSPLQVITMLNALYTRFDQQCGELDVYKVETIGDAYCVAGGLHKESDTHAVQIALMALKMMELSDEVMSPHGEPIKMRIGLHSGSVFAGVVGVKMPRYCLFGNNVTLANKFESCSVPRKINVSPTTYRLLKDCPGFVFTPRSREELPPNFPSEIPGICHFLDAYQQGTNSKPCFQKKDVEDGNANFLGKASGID
T1 sequence (Q02153 1-619): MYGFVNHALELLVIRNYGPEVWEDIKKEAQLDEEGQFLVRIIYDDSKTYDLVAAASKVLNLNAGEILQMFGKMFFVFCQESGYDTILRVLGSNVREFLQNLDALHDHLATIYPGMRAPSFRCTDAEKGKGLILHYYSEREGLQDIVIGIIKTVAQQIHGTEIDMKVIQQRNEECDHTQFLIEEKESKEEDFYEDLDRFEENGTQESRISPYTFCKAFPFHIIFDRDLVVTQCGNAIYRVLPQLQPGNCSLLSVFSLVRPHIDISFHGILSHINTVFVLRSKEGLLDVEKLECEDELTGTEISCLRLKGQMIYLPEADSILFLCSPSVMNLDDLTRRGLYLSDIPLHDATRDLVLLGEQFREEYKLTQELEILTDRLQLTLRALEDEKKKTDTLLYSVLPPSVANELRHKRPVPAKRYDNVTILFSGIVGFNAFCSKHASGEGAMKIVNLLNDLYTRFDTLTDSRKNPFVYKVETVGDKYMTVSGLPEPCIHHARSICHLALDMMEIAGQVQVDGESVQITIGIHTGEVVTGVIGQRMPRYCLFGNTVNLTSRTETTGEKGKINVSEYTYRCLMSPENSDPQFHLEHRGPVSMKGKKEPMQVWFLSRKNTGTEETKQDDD
Kind of experiment: Guanylate cyclase assay (formation of cyclic GMP from GTP). It is filed as biochemical. To be noted: for Mean activation at 100 μM: (activity of compound at 100 μM with 1 μM SNP)−(activity of compound at 100 μM)/(activity of SNP at 1 μM)−(basal activity of sGC); for Mean efficacy of compound combined with 1 μM of SNP, [%]: compound at 100 μM with 1 μM sodium nitro prusside (SNP); for Mean efficacy of compound combined with 1 μM of SNP, [%] / Emax at 100 µM: normalized with the activity of 100 μM YC-1 (without SNP) as 100%; for Emax at 100 µM: compound at 100 μM without SNP, read-out: Mean basal efficacy of compound alone at 100 μM, [%]. Here is the method: Sf9 cells were cultured in Sf-90011 medium supplemented with 10% (v/v) fetal calf serum at 28° C. to give a count of 6×10^5 cells/ml. The cells were then infected with a mixture of the virus stocks for the α1 and β1 subunits of guanylate cyclase at a multiplicity of infection of 0.1 pfu/cell. The cells were harvested 72 hours after infection and were pelleted by centrifugation. The resulting cell pellets were homogenized with Polytron homogenizer in 3 volumes of 20 mM Tris-HCl (pH 7.6) containing 1 mM EDTA, 5 mM dithiothreitol, 90 mM NaCl, 10% glycerol, and protease inhibitors mix (Roche Molecular Biochemicals). The homogenate was centrifuged at 50,000×g for 60 minutes and the supernatant was aliquotted and stored at −80° C.
Compounds of the present invention were dissolved in DMSO to make 100 mM and saved as stocks at −20° C. When compounds were tested, prepared 10-fold concentrated solutions with 10% DMSO. Then added 10 μl of 10-fold concentrated compound solutions to the reaction mixture of total 100 μl.
Guanylate cyclase activity was measured by the formation of cyclic GMP from GTP in a total volume of 100 μl. Guanylate cyclase-expressed Sf9 cell high-speed supernatant was used as an enzyme source for the assay. The reaction mixture containing 0.1 μl enzyme (Sf9 high-speed sup), compound solution, 50 mM Tris-HCl (pH 7.6), 4 mM MgCl2, 0.5 mM IBMX, 15 mM creatine phosphate, 20 μg creatine phosphokinase, 0.1% BSA and 1 mM GTP was incubated at 37° C. for 15 minutes. After the reaction, 0.9 ml of 50 mM sodium acetate buffer (pH 5.8) was added followed by boiling for 3 minutes to stop the reaction. The solution was centrifuged at 3000 rpm for 15 minutes at room temperature and cyclic GMP in 20 μl of the resulting supernatant was measured according to the protocol of Amersham cyclic GMP enzymeimmunoassay system (purchased from Sigma, catalogue number RPN 226).
Compounds of the present invention were tested at 100 μM with and without 1 μM sodium nitro prusside (SNP). 1-Benzyl-3-hydroxymethyl-2-furylindazole (YC-1) was included as a standard for each assay. The data was normalized with the activity of 100 μM YC-1 (without SNP) as 100%. Mean basal efficacy, in Table 1, was expressed as a percentage of 100 μM YC-1 (without SNP).
The mean activation, in Table 1, was calculated based on the formula: (activity of compound of the present invention at 100 μM with 1 μM SNP)−(activity of compound of the present invention at 100 μM)/(activity of SNP at 1 μM)−(basal activity of sGC).

Regarding `CONCCCCNC(=O)CCc1ccccc1Sc1ccc(Cl)cc1` [Example 12, 3-{2-[(4-chlorophenyl)thio]phenyl}-N-[4-(methoxyamino)butyl]propanamide], the “Mean activation at 100 μM” value was found to be 1.5; the “Mean efficacy of compound combined with 1 μM of SNP, [%]” value (from here on “Mean efficacy … [%]”) was found to be 20%; the Emax at 100 µM worked out at 2%.

`CNCCCCNC(=O)CCc1ccccc1Sc1ccc(Cl)cc1` [Example 13, 3-{2-[(4-chlorophenyl)thio]phenyl}-N-[4-(methylamino)butyl]propanamide]: the “Mean activation at 100 μM” value is on record as 2.4; the “Mean efficacy … [%]” value was 25%; the Emax at 100 µM was found to be 4%.

Take `CNCCCCCNC(=O)CCc1ccccc1Sc1ccc(Cl)cc1` [Example 14, 3-{2-[(4-chlorophenyl)thio]phenyl}-N-[5-(methylamino)pentyl]propanamide]: the “Mean activation at 100 μM” value worked out at 4.4; the “Mean efficacy … [%]” value came to 124%; the Emax at 100 µM stood at 30%.

In the case of `Cc1ccc(Sc2ncccc2/C=C/C(=O)NC2CCC(O)CC2)cc1` (stereo not shown) [Example 15, (2E)-N-(4-hydroxycyclohexyl)-3-{2-[(4-methylphenyl)thio]-3-pyridinyl}acrylamide], the “Mean activation at 100 μM” value is recorded as 4.7; the “Mean efficacy … [%]” value was determined as 204%; the Emax at 100 µM stood at 126%.

As for `O=C(/C=C/c1cccnc1Sc1ccc(Cl)cc1)NC1CCC(O)CC1` (stereo not shown) [Example 16, (2E)-3-{2-[(4-chlorophenyl)thio]-3-pyridinyl}-N-(4-hydroxycyclohexyl)acrylamide], the “Mean activation at 100 μM” value stood at 3.6; the “Mean efficacy … [%]” value came to 68%; the Emax at 100 µM is 11%.

In the case of `O=C(/C=C/c1cccnc1Sc1ccc(Cl)cc1Cl)NC1CCC(O)CC1` (stereo not shown) [Example 17, (2E)-3-{2-[(2,4-dichlorophenyl)thio]-3-pyridinyl}-N-(4-hydroxycyclohexyl)acrylamide], the “Mean efficacy … [%]” value was found to be 138% and the Emax at 100 µM was 38%.

With `O=C(/C=C/c1cccnc1Sc1ccc(Br)cc1)NC1CCC(O)CC1` (stereo not shown) [Example 18, (2E)-3-{2-[(4-bromophenyl)thio]-3-pyridinyl}-N-(4-hydroxycyclohexyl)acrylamide], the “Mean efficacy … [%]” value amounted to 113% and the Emax at 100 µM came out at 43%.

On to `O=C(/C=C/c1cccnc1Sc1ccccc1)NC1CCC(O)CC1` (stereo not shown) [Example 19, (2E)-N-(4-hydroxycyclohexyl)-3-[2-(phenylthio)-3-pyridinyl]acrylamide], for which the “Mean activation at 100 μM” value came out at 4.8; the “Mean efficacy … [%]” value was 120%; the Emax at 100 µM was determined as 37%.

In the case of `O=C(/C=C/c1cccnc1Sc1ccccc1Cl)NC1CCC(O)CC1` (stereo not shown) [Example 20, (2E)-3-{2-[(2-chlorophenyl)thio]-3-pyridinyl}-N-(4-hydroxycyclohexyl)acrylamide], the “Mean activation at 100 μM” value is reported as 6.3; the “Mean efficacy … [%]” value is reported as 199%; the Emax at 100 µM was determined as 90%.

`CC(C)CSc1ccccc1/C=C/C(=O)NC1CCCCC1O` (stereo not shown) [Example 21, (2E)-N-(2-hydroxycyclohexyl)-3-[2-(isobutylthio)phenyl]acrylamide]: the “Mean activation at 100 μM” value worked out at 4.1; the “Mean efficacy … [%]” value was determined as 106%; the Emax at 100 µM turned out to be 45%.

In the case of `O=C(/C=C/c1ccccc1SC1CCCC1)NC1CCCCC1O` (stereo not shown) [Example 22, (2E)-3-[2-(cyclopentylthio)phenyl]-N-(2-hydroxycyclohexyl)acrylamide], the “Mean activation at 100 μM” value stood at 3.9; the “Mean efficacy … [%]” value is 169%; the Emax at 100 µM turned out to be 158%.

For `O=C(/C=C/c1ccccc1SC1CCCCC1)NC1CCCCC1O` (stereo not shown) [Example 23, (2E)-3-[2-(cyclohexylthio)phenyl]-N-(2-hydroxycyclohexyl)acrylamide], the “Mean activation at 100 μM” value turned out to be 2.7; the “Mean efficacy … [%]” value turned out to be 187%; the Emax at 100 µM was found to be 174%.

As for `CC(C)Sc1ccccc1/C=C/C(=O)NC1CCC(O)CC1` (stereo not shown) [Example 24, (2E)-N-(4-hydroxycyclohexyl)-3-[2-(isopropylthio)phenyl]acrylamide], the “Mean activation at 100 μM” value was found to be 1.6; the “Mean efficacy … [%]” value was 17%; the Emax at 100 µM is 4%.

Turning to `O=C(/C=C/c1ccccc1SC1CCCC1)NC1CCC(O)CC1` (stereo not shown) [Example 25, (2E)-3-[2-(cyclopentylthio)phenyl]-N-(4-hydroxycyclohexyl)acrylamide], the “Mean activation at 100 μM” value is given as 9.5; the “Mean efficacy … [%]” value was 430%; the Emax at 100 µM was 242%.

Regarding `O=C(/C=C/c1ccccc1SC1CCCCC1)NC1CCC(O)CC1` (stereo not shown) [Example 26, (2E)-3-[2-(cyclohexylthio)phenyl]-N-(4-hydroxycyclohexyl)acrylamide], the “Mean activation at 100 μM” value was 7.9; the “Mean efficacy … [%]” value was found to be 506%; the Emax at 100 µM was determined as 353%.

For `CCCCCSc1ccccc1/C=C/C(=O)NC1CCC(O)CC1` (stereo not shown) [Example 27, (2E)-N-(4-hydroxycyclohexyl)-3-[2-(pentylthio)phenyl]acrylamide], the “Mean activation at 100 μM” value was found to be 8.3; the “Mean efficacy … [%]” value came out at 278%; the Emax at 100 µM came out at 115%.

`Cc1ccc(/C=C/C(=O)NC2CCC(O)CC2)c(Sc2ccc(Cl)cc2)n1` (stereo not shown) [Example 28, (2E)-3-{2-[(4-chlorophenyl)thio]-6-methyl-3-pyridinyl}-N-(4-hydroxycyclohexyl)acrylamide]: the “Mean activation at 100 μM” value is recorded as 2.6; the “Mean efficacy … [%]” value is 18%; the Emax at 100 µM amounted to 6%.

With `CC(CCCC(C)(C)O)NC(=O)/C=C/c1ccccc1Sc1ccc(Cl)cc1` (stereo not shown) [Example 31, (2E)-3-{2-[(4-chlorophenyl)thio]phenyl}-N-(5-hydroxy-1,5-dimethylhexyl)acrylamide], the “Mean activation at 100 μM” value came out at 3.7; the “Mean efficacy … [%]” value was 187%; the Emax at 100 µM came to 93%.

The values above are taken from patent US20040121994A1, “Novel amides that activate soluble guanylate cyclase” (priority 2002, published 2004).
